ChEMBL document CHEMBL1201862, “PubChem BioAssay data set” (2004)
Calls of active or inactive are those of the source.

How the values were obtained:
[1] = system: Streptococcus sp. 'group A'; test: growth inhibition of control SK(-) GAS strain, dose response, counter-screen for streptokinase expression inhibitor project, luminescence, kanamycin, BacTiterGlo, confirmation (AID 1900); assay type: functional, organism-based
Streptokinase A = target: T1, Streptokinase A (Streptococcus pyogenes serotype M1, UniProt P10520); test: S. pyogenes streptokinase expression inhibitors, potency, dose response, plasminogen activation absorbance, OD405 (AID 1914); assay type: functional, Streptococcus pyogenes M1 GAS;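 also: secreted streptokinase activity via plasminogen activation per viability signal from cell pellet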
T1 sequence (P10520 whole entry): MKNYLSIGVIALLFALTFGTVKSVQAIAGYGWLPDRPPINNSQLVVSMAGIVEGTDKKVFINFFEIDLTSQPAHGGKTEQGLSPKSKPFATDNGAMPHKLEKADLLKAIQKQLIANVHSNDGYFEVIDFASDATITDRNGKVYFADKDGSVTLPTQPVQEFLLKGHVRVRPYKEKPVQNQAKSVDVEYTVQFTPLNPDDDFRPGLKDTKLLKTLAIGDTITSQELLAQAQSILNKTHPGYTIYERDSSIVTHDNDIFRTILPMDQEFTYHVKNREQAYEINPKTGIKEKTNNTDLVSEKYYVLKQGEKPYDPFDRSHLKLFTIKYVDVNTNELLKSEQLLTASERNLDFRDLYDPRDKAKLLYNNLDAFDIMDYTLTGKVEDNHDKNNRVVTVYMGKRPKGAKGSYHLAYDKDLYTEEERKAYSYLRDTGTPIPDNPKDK

Streptococcus = test: Group A Streptococcus viability loss, dose response, counter-screen for streptokinase expression inhibitor project, luminescence, BacTiterGlo (AID 1915); assay type: functional, organism-based;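 also: potency for reduction of bacterial viability or growth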
[2] = target: Disintegrin and metalloproteinase domain-containing protein 17 (Homo sapiens, UniProt P78536); test: exosite inhibitors of ADAM17, dose response, biochemical (AID 743260)
[3] = target: T2, Sentrin-specific protease 8 (Homo sapiens, UniProt Q96LD8); assay type: functional
T2 sequence (Q96LD8 whole entry): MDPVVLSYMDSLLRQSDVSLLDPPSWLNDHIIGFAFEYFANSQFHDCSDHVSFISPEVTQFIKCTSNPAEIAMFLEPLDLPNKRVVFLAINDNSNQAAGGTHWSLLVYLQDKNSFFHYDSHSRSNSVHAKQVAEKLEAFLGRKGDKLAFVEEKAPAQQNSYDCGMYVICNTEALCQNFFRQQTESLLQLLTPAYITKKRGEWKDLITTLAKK

[4] = target: T3, Replicative DNA helicase DnaB (Mycobacterium tuberculosis, UniProt P9WMR3); test: DnaB intein splicing inhibitors, dose response, biochemical, cell-free fluorescence (AID 449749); assay type: functional
T3 sequence (P9WMR3 whole entry): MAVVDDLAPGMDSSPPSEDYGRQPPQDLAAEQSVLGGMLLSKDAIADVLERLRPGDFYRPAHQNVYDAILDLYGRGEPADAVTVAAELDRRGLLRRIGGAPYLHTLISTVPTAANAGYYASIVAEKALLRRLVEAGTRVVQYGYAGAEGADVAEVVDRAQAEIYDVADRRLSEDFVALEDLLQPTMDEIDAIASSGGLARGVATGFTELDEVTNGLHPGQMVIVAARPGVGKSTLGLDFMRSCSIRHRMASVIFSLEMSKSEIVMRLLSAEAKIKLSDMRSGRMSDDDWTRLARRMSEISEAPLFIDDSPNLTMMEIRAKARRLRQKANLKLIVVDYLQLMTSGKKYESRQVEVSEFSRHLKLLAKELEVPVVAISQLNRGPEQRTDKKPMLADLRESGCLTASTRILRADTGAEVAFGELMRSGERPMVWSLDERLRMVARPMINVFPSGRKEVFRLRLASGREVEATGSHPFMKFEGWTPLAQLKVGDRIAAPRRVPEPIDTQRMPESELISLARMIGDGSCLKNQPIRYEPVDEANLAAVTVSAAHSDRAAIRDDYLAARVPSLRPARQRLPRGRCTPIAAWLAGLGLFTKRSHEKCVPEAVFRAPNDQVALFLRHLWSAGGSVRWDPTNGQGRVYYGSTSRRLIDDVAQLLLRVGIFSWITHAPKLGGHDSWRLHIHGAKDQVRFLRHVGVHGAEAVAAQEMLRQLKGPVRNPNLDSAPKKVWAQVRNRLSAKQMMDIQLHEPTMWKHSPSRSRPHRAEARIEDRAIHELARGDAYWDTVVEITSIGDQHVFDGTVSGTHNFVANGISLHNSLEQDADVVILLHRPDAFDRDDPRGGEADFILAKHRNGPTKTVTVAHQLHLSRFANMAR

[5] = target: T2, Sentrin-specific protease 8; assay type: functional; remark: listed apart in the source
Protein RecA = target: T4, Protein RecA (Mycobacterium tuberculosis, UniProt P9WHJ3); test: Fluorescence Cell-Free Homogeneous Dose Retest to Identify Inhibitors of RecA-Intein Splicing Activity. [Related pubchem assays (depositor defined):AID2097, AID2223, AID489010, AID492950]; assay type: functional
T4 sequence (P9WHJ3 whole entry): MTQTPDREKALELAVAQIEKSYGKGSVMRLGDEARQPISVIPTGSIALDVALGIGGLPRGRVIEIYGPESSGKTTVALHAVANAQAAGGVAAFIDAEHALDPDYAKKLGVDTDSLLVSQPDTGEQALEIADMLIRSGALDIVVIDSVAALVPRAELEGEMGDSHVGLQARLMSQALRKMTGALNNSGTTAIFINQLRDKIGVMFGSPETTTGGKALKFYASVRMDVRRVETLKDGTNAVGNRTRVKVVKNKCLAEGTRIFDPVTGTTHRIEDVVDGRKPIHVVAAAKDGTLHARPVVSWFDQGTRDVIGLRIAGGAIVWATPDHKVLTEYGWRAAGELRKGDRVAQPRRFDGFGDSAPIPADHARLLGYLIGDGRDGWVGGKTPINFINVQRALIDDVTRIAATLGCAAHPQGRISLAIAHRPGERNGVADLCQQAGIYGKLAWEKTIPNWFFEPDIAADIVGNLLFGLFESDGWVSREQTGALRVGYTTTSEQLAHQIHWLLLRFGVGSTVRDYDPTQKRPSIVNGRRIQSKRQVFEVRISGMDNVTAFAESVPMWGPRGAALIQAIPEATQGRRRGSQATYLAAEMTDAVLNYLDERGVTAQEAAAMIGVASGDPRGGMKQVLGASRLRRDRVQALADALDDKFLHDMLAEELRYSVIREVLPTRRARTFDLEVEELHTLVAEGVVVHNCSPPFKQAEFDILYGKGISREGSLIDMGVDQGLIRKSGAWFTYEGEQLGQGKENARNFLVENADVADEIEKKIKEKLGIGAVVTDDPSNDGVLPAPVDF

Beta-lactamase [6] = target: T5, Beta-lactamase (Salmonella choleraesuis (strain SC-B67), UniProt Q5J463)
Beta-lactamase [7] = target: T6, Beta-lactamase (Pseudomonas aeruginosa, UniProt Q79MP6)
[8] = Luminescence Cell-Based Dose Retest to Confirm Inhibitors of Cancer Stem Cells. [Related pubchem assays (depositor defined):AID2717, AID2721]; assay type: functional; settings: Homo sapiens
Cryptococcus neoformans = test: PubChem AID 686997; assay type: functional, organism-based
Beta-lactamase [9] = target: T5, Beta-lactamase; test: Epi-absorbance-based counterscreen for selective VIM-2 inhibitors: dose response biochemical high throughput screening assay to identify inhibitors of TEM-1 serine-beta-lactamase.
Beta-lactamase [10] = target: T6, Beta-lactamase; test: […] counterscreen for selective VIM-2 inhibitors: dose response biochemical high throughput screening assay to identify inhibitors of IMP-1 metallo-beta-lactamase.
[11] = target: FAD-linked sulfhydryl oxidase ALR (Homo sapiens, UniProt P55789); test: inhibitors of human ALR sulfhydryl oxidase, dose response, biochemical, H2O2 detection, luminescence, cherry-pick (AID 493248)
Beta-lactamase [12] = target: T6, Beta-lactamase; test: IMP-1 metallo-beta-lactamase inhibitors, dose response, selectivity assay for VIM-2 inhibitor project, biochemical, epi-absorbance (AID 1920)
[13] = inhibitors of intracellular T. cruzi replication, confirmation, NIH3T3 host cells, beta-gal luminescence (AID 2044); assay type: functional, cell-based;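 also: intracellular parasites grown in NIH/3T3 mouse fibroblasts as host cells; luminescent beta-galactosidase reporter signal from transgenic T. cruzi replicating inside host cells; inhibitors lower the luminescence signal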
[14] = target: T7, Long-chain-fatty-acid--AMP ligase FadD28 (Mycobacterium tuberculosis, UniProt P9WQ59); test: Fluorescence polarization aasay to screen for inhibitors that compete for the binding of FadD28 to a bisubstrate Measured in Biochemical System Using Plate Reader - 2147-01_Inhibitor_Dose_CherryPick_Activity.; assay type: functional, Mycobacterium tuberculosis H37Rv
T7 sequence (P9WQ59 whole entry): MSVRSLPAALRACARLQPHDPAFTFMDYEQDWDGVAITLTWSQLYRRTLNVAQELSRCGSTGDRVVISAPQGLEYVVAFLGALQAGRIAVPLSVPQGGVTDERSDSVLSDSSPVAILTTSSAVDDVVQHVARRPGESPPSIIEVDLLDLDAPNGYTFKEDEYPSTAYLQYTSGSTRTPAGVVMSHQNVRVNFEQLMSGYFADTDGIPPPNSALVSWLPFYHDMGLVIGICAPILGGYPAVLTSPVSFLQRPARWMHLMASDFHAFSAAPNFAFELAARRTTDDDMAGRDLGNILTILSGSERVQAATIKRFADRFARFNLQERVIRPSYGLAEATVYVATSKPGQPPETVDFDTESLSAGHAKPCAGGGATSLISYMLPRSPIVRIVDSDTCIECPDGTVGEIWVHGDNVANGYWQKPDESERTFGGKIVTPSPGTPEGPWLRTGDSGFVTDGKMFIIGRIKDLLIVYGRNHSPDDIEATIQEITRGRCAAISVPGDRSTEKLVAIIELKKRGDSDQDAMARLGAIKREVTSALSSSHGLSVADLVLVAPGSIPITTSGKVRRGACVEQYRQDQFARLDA

[15] = cytotoxicity toward NIH3T3 fibroblasts, dose response, counter-screen, cell-based, ATP luminescence, mouse fibroblasts (AID 2010); assay type: functional;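 also: cells exposed to compound for about 90 hours before reading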
[16] = target: Botulinum neurotoxin type F (Clostridium botulinum, UniProt P30996); test: High-throughput multiplex microsphere dose response for inhibitors of toxin protease, specifically Botulinum neurotoxin light chain F protease, compounds from Cherry Pick 02.; assay type: functional; settings: read-out: EC50_MICROM
[17] = target: Fructose-bisphosphate aldolase (Mycobacterium tuberculosis, UniProt P9WQA3); test: Fluorescence-based biochemical high throughput dose response assay for inhibitors of the fructose-bisphosphate aldolase (FBA) of M. tuberculosis.; assay type: functional
Protein S100-A4 = Protein S100-A4 (Homo sapiens, UniProt P26447); test: S100A4-myosin IIA binding inhibitor potency, dose response, biochemical, fluorescence polarization, cherry-picked hits (AID 687001); assay type: functional
Vero = test: Vero cell toxicity, dose response, cytotoxicity control, plate reader, cherry-pick samples (AID 687020); assay type: functional, cell-based; settings: Chlorocebus sabaeus
[18] = miR-122 activators in hepatoma reporter cells, dose response, cell-based, Huh7 psiCHECK-miR122, Renilla luciferase, cherry-picked (AID 651956); assay type: functional;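 also: huh7 hepatoma cells stably carrying a psiCHECK-2 miR-122 sensor plasmid; renilla luciferase signal reporting endogenous miR-122 activity after 48 h compound exposure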
[19] = HEK293T cytotoxicity, dose response, cytotoxicity control for miR-122 modulator project, cell-based, activator set, cherry-pick (AID 720690); assay type: functional;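 also: HEK293T human cells scored for general mammalian cytotoxicity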
[20] = HEK293T cytotoxicity, dose response, cytotoxicity control for miR-122 modulator project, cell-based, inhibitor set, cherry-pick, set 2 (AID 720697); assay type: functional

T6 sequence (Q79MP6 whole entry): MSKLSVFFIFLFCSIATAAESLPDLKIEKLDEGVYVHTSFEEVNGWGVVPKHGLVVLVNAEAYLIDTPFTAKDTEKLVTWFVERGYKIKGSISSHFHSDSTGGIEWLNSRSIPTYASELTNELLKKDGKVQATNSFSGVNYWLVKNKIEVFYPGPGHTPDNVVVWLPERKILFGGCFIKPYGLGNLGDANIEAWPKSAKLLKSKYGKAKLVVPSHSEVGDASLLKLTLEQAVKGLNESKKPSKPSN
T5 sequence (Q5J463 whole entry): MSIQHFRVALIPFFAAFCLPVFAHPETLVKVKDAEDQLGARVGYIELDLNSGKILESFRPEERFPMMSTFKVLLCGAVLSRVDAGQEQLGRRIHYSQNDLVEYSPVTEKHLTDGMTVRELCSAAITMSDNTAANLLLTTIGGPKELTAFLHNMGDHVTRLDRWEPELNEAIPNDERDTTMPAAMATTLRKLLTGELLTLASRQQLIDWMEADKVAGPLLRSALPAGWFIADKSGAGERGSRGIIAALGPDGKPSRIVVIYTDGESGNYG
Chain of Protein S100-A4 (P26447 whole entry): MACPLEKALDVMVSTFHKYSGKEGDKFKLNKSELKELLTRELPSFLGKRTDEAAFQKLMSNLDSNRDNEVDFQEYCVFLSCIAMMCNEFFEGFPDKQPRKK
Chain of Disintegrin and metalloproteinase domain-containing protein 17 (P78536 whole entry, the tested form may be a part): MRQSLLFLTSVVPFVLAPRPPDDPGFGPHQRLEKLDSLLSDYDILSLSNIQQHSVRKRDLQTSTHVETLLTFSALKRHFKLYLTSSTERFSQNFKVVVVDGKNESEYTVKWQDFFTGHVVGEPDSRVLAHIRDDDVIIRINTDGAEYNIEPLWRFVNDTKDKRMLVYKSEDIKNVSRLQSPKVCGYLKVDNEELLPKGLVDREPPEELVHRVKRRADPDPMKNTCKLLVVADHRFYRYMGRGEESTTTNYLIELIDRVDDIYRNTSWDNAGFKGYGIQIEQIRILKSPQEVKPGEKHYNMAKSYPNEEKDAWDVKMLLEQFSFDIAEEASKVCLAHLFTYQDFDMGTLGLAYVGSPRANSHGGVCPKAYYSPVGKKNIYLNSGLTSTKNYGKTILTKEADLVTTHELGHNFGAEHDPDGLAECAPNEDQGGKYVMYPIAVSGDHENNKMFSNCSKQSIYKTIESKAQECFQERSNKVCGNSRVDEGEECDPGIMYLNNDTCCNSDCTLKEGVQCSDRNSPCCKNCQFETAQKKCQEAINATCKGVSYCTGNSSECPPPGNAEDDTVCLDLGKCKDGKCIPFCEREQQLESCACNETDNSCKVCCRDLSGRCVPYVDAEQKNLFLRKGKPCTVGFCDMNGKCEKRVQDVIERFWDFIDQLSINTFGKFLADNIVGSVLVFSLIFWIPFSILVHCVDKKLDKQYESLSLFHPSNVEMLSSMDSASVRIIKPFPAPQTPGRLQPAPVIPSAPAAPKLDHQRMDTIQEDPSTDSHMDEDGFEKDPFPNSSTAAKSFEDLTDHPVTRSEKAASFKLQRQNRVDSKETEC
Chain of FAD-linked sulfhydryl oxidase ALR (P55789 whole entry): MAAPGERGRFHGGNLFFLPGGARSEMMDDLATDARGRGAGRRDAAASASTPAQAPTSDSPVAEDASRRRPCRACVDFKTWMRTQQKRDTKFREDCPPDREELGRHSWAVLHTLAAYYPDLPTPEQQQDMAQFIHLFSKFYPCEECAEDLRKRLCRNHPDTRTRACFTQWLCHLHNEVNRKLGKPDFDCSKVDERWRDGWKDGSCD
Chain of Botulinum neurotoxin type F (P30996 1-436 limits assumed): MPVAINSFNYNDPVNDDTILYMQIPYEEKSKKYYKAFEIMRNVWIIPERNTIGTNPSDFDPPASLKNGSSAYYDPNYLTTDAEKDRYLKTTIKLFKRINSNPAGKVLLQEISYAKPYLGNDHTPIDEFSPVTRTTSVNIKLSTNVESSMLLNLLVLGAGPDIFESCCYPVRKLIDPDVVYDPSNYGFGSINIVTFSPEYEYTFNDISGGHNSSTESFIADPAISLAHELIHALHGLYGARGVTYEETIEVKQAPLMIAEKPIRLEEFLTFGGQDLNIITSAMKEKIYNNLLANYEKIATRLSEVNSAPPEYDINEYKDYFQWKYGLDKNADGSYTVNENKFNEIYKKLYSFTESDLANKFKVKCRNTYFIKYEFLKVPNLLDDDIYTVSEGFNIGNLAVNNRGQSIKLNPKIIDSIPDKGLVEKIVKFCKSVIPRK
Chain of Fructose-bisphosphate aldolase (P9WQA3 whole entry): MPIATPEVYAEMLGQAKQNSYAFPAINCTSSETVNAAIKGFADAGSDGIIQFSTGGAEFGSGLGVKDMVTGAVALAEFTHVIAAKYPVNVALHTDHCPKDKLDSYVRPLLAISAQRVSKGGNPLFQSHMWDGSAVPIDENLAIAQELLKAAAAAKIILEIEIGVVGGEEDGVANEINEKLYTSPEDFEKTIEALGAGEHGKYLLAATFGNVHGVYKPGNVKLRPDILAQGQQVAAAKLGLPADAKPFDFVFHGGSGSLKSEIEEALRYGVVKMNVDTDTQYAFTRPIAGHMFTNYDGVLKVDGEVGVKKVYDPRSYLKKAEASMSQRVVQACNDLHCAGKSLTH

## Cc1cc(SCC(=O)c2ccc(O)c(O)c2)n2nc(C)c(-c3ccccc3)c2n1
[1]
  EC50: 7.32 µM (active)
Streptokinase A
  EC50: > 150 µM (not active)
Streptococcus
  EC50: 13.9 µM (active)
[2]
  IC50: > 69.5 µM (inactive)

## COc1cc(C(c2c(C)n[nH]c2O)c2c(C)n[nH]c2O)ccc1OS(=O)(=O)c1ccccc1
[3]
  IC50: 72.9 µM (inactive)
[4]
  AC50: 0.402 µM (active)
[5]
  IC50: 45.2 µM (active)
Protein RecA
  EC50: 0.217 µM (active)

## CCc1cc(=O)oc2cc(C)c(CN3CCCC3)c(O)c12
Beta-lactamase [6]
  IC50: > 59.6 µM (inactive)
Beta-lactamase [7]
  IC50: > 59.6 µM (inactive)

## COc1ccc(C(=O)NC(=S)Nc2ccccc2N2CCCCC2)cc1[N+](=O)[O-]
[8]
  AC50: 0.549 µM (active)
Cryptococcus neoformans
  AC50: > 70 µM (inactive)

## COc1cccc(-n2c(S)nnc2CNC(=O)OC(C)(C)C)c1
Beta-lactamase [9]
  IC50: > 59.6 µM (inactive)
Beta-lactamase [10]
  IC50: > 59.6 µM (inactive)
[11]
  AC50: 12.1 µM (active)
Beta-lactamase [12]
  IC50: > 59.6 µM (inactive)

## CCc1cccc2c(C(=O)COC(=O)c3ccc(O)cc3)c[nH]c12
[13]
  EC50: 2.89 µM (active)
[14]
  AC50: 26.2 µM (active)
[15]
  EC50: 9.37 µM (active)
[16]
  EC50: > 20 µM (inactive)

## Cc1ccc2c(C)cc[n+](CCCS(=O)(=O)[O-])c2c1
[17]
  IC50: 5.92 µM (active)

## COc1cccc2c1C(=O)c1c(O)c3c(c(O)c1C2=O)CC(O)(C(C)=O)CC3OC1CC(O)C(O)C(C)O1 (stereo unspecified)
Protein S100-A4
  AC50: 0.395 µM (active)

## CCCCNC(=O)O[C@H]1C[C@@H]2CCN3C(=O)CCC[C@H]([C@H]1Cc1ccccc1)[C@H]23
Vero
  AC50: 38.6 µM (active)

## C[C@@H]1CN([C@H](C)CO)C(=O)c2cc(NC(=O)Nc3cccc4ccccc34)ccc2O[C@@H](C)CCCCO[C@@H]1CN(C)Cc1ccc2c(c1)OCO2
[18]
  AC50: 9.62 µM (active)
[19]
  AC50: 22 µM (active)
[20]
  AC50: < 0.195 µM (active)
